Measured values taken from article PMC8922281, “Synthesis and In Vitro Biological Evaluation of Quinolinyl Pyrimidines Targeting Type II NADH-Dehydrogenase (NDH-2)” (ACS Infectious Diseases, 2022).
≈ marks a conversion by molar mass, not a printed value. Where “and” joins values, the source holds several entries; their conditions need not be identical. Identical values can stand only once. Like-named read-outs stand apart in the source and are kept apart here.

Legend:
[1] = test system: M. tuberculosis strain H37Rv (ATCC 25618); assay: MIC on M. tuberculosis by resazurin reduction microplate assay (REMA); assay type: cell-based; conditions: Mycobacterium tuberculosis
HepG2 cells = conditions: human, 72 h
MtNDH-2 = MtNDH-2 (Mycobacterium tuberculosis, UniProt P95160); assay: biochemical; parameters: species or system M. tuberculosis; conditions: MtNDH-2 IC50
MsNDH-2 = MsNDH-2 (Mycolicibacterium smegmatis, UniProt A0QYD6); assay: Inhibition of MsNDH-2 (NADH oxidation with menadione, absorbance at 340 nm); assay type: biochemical, M. smegmatis
[2] = test system: E. coli (ATCC 25922, wild-type); assay: MIC on ESKAPE pathogens, E. coli wild-type; assay type: cell-based; conditions: Escherichia coli
[3] = test system: E. coli (ΔtolC efflux-defective mutant, isogenic to ATCC 25922); assay: microbe, parasite or virus in culture; assay type: cell-based; conditions: Escherichia coli, ATCC25922, read-out: MIC Ec ΔtolC
[4] = test system: E. coli (D22, lpxC mutant, drug-hypersensitive); assay: microbe, parasite or virus in culture; assay type: cell-based; conditions: Escherichia coli, read-out: MIC Ec D22
[5] = test system: P. aeruginosa (PAO1, wild-type); assay: MIC on ESKAPE pathogens, P. aeruginosa wild-type; assay type: cell-based; conditions: Pseudomonas aeruginosa
[6] = test system: P. aeruginosa (PAO750 efflux-defective mutant, isogenic to PAO1); assay: microbe, parasite or virus in culture; assay type: cell-based; conditions: Pseudomonas aeruginosa, PAO1, read-out: MIC Pa efflux
[7] = test system: A. baumannii (ATCC 19606, wild-type); assay: MIC on ESKAPE pathogens, A. baumannii; assay type: cell-based; conditions: Acinetobacter baumannii, ATCC19606; A. baumannii ATCC 19606, wild-type; read-out: MIC Ab WT
[8] = test system: S. aureus (ATCC 29213, wild-type); assay: MIC on ESKAPE pathogens, S. aureus; assay type: cell-based; conditions: Staphylococcus aureus, ATCC29213
[9] = Cytotoxicity on the MRC-5 cell line (resazurin); assay type: cell-based; conditions: human, MRC-5SV2 cells, MRC-5SV2, 3 days
Procedure: MRC-5SV2 cells were cultured in Earl’s MEM + 5% FCSi. Assays were performed in 96-well microtiter plates, each well containing about 10^4 cells/well. After 3 days of incubation with or without compounds, cell viability was assessed fluorimetrically after the addition of resazurin (λex 550 nm, λem 590 nm). The results were expressed as % reduction in cell growth/viability compared to untreated control wells and CC50 was determined. Testing/retesting strategy was as described above for HepG2 cells.

[10] = test system: K. pneumonia (ATCC 13833, wild-type); assay: MIC on ESKAPE pathogens, K. pneumoniae
[11] = test system: Trypanosoma cruzi Tulahuen LacZ (clone C4); assay: Trypanosoma cruzi growth on MRC-5 cells (CPRG); conditions: MRC5, 168 h, read-out: IC50 Trypanosoma cruzi
Procedure: In vitro biology: Minimum inhibitory concentration (MIC) assays on parasites Synthesized compounds were tested against different parasite cell lines (T. brucei, T. cruzi, and P. falciparum K1) for the MIC determination.
Trypanosoma cruzi cells were maintained on MRC-5 human lung fibroblast cells. The assay was performed with 5% CO2 at 37 °C in a 96-well microtiter plate. Each well contains 10 µl compound dilution and 190 µl parasite/MRC-5 cell inoculum (10:1 parasites : cells). Parasite burdens were evaluated with addition of substrate CPRG (50 µl/well stock solution with 15.2mg CPRG + 250 µl Nonidet in 100 ml PBS). After 4h incubation, the absorbance change was measured spectrophotometrically at 540 nm at 37 °C. The res ults were presented as % growth, compared with non-infected cells (0% growth) and untreated-infected controls (100 % growth) after 7-day incubation, and the

[12] = test system: E. coli MG1655 ΔtolC resistant mutants; assay: microbe, parasite or virus in culture; assay type: cell-based; conditions: for MIC: Escherichia coli
[13] = test system: P. aeruginosa PAO1 resistant mutants; assay: microbe, parasite or virus in culture; assay type: cell-based
[14] = H37Rv, reference antitubercular agents, read-out: MIC M. tuberculosis
[15] = 95% confidence interval in parentheses, 50 nM enzyme, 50 μM menadione, >100: no significant inhibition at 100 μM
[16] = same IC50 given in μg/mL to assist comparisons with MICs
[17] = ATCC25922, E. coli ATCC 25922, wild-type, read-out: MIC Ec WT
[18] = PAO1, P. aeruginosa PAO1, wild-type, read-out: MIC Pa WT
[19] = M. tuberculosis H37Rv, read-out: MIC Mtb

MsNDH-2, sequence (A0QYD6 1-457): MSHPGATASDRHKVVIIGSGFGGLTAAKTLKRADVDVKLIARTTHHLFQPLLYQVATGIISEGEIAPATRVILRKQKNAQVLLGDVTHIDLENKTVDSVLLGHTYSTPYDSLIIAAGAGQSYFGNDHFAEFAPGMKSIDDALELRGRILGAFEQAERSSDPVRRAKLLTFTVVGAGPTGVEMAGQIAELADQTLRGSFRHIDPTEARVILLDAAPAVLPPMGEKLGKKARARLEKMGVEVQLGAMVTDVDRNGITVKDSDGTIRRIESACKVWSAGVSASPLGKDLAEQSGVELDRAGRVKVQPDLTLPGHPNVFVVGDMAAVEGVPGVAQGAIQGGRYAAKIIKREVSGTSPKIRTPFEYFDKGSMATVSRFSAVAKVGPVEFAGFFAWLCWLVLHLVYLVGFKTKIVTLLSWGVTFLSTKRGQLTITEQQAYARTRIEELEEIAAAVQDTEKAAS
MtNDH-2, sequence (P95160 2-463, added parts left off): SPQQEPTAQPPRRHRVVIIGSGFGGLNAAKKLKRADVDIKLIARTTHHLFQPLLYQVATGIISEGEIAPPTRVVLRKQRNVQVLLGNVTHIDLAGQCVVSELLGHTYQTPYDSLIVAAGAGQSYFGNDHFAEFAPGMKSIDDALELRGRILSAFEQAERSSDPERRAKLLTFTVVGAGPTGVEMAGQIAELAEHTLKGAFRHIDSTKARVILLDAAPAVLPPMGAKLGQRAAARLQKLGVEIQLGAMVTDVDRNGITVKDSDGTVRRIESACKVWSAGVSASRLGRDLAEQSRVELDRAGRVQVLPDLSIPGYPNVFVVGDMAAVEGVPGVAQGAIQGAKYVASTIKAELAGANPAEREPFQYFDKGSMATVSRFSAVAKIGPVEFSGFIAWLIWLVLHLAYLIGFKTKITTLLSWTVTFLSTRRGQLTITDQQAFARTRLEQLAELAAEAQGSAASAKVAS

Structure (SMILES) | IC50 (MtNDH-2) | IC50 (MsNDH-2; [15]) | IC50 (MsNDH-2; [16]) | MIC [2, 17] | MIC [3] | MIC [4] | MIC [5, 18] | MIC [6] | MIC [7] | MIC [8] | MIC [1, 19] | IC50 at 3 days ([9]; resazurin) | IC50 at 3 days ([9]; value in parentheses) | MIC Kp WT [10] | further results
COc1nc2ccc(Br)cc2cc1[C@@H](c1ccccc1)[C@@](O)(CCN(C)C)c1cccc2ccccc12 [bedaquiline, reference compound] | – | – | – | – | – | – | – | – | – | – | – | – | – | – | MIC [1, 14]: 0.37 µM; cytotoxicity HepG2 TD50 (HepG2 cells): 50 µM; cytotoxicity HepG2 TD99 (HepG2 cells): ≥ 100 µM
Nc1cc(-c2ccc(F)cc2)nc2ccc(Nc3cc(N4CCNCC4)ncn3)cc12 [Compound 15, 2-(4-Fluorophenyl)-N^6-(6-(piperazin-1-yl)pyrimidin-4-yl)quinoline-4,6-diamine] | 6 µM and 6.02 µM | 23 µM | 20.9 µM | > 64 µg/mL | 16 µg/mL (≈ 38.5 µM) | 16 µg/mL (≈ 38.5 µM) | 32 µg/mL (≈ 77 µM) | 8 µg/mL (≈ 19.3 µM) | > 64 µg/mL | > 64 µg/mL | > 42 µg/mL | 1.7 µM | 0.7 µg/mL | >64 µg/mL | –
CNCCN(C)c1cc(Nc2ccc3nc(-c4ccc(F)cc4)cc(N)c3c2)nc(N)n1 [Compound 8m, N^4-(4-Amino-2-(4-fluorophenyl)quinolin-6-yl)-N^6-methyl-N^6-(2-(methylamino)ethyl)pyrimidine-2,4,6-triamine] | 16 µM | 19 µM | 18.5 µM | > 64 µg/mL | 32 µg/mL (≈ 74 µM) | 32 µg/mL (≈ 74 µM) | 32 µg/mL (≈ 74 µM) | 16 µg/mL (≈ 37 µM) | > 64 µg/mL | > 64 µg/mL | 21.6 µg/mL | 7.6 µM | 3.3 µg/mL | >64 µg/mL | –
CO[C@H]1/C=C/O[C@@]2(C)Oc3c(C)c(O)c4c(O)c(c(/C=N/N5CCN(C)CC5)c(O)c4c3C2=O)NC(=O)/C(C)=C\C=C\[C@H](C)[C@H](O)[C@@H](C)[C@@H](O)[C@@H](C)[C@H](OC(C)=O)[C@@H]1C [Rifampicin, reference compound] | – | – | – | – | – | – | – | – | – | – | – | – | – | – | MIC [1, 14]: 0.0003 µM; cytotoxicity HepG2 TD50 (HepG2 cells): 75 µM; cytotoxicity HepG2 TD99 (HepG2 cells): ≥ 100 µM
O=C(Cn1ccnc1[N+](=O)[O-])NCc1ccccc1 [Benznidazole] | – | – | – | – | – | – | – | – | – | – | – | – | – | – | IC50 [11]: 1.7 µM
CC(C)(C)OC(=O)NCC1CCN(c2cc(Nc3ccc4nc(-c5ccc(F)cc5)cc(N)c4c3)nc(N)n2)CC1 [Compound 8g, tert-Butyl ((1-(2-Amino-6-((4-amino-2-(4-fluorophenyl)quinolin-6-yl)amino)pyrimidin-4-yl)piperidin-4-yl)methyl)carbamate] | 0.29 µM and 0.286 µM | 0.58 µM | 0.537 µM | – | 4 µg/mL (≈ 7.16 µM) | 4 µg/mL (≈ 7.16 µM) | – | 128 µg/mL (≈ 229 µM) | 4 µg/mL (≈ 7.16 µM) | 4 µg/mL (≈ 7.16 µM) | 6.8 µg/mL | 1.4 µM | 0.8 µg/mL | 128 µg/mL (≈ 229 µM) | MIC ([2]; ATCC25922, read-out: MIC Ec WT): > 128 µg/mL; MIC ([5]; PAO1, read-out: MIC Pa WT): > 128 µg/mL; MIC ([12]; MG1655, read-out: MIC mutant, mutant CH5053 raised against 8g, ackA Leu255Arg): 16 µg/mL (≈ 28.6 µM); MIC ([12]; MG1655, read-out: MIC mutant, mutant CH5054 raised against 8g, ackA Glu375 stop codon): 16 µg/mL (≈ 28.6 µM); MIC ([12]; MG1655, read-out: MIC mutant, mutant CH5055 raised against 8g, ackA Thr233Pro): 16 µg/mL (≈ 28.6 µM); MIC ([12]; MG1655, read-out: MIC mutant, mutant CH5056 raised against 8g, ackA Gly275Asp): 16 µg/mL (≈ 28.6 µM); MIC ([12]; MG1655, read-out: MIC mutant, mutant CH5057 raised against 8g, eno Pro38Leu): 8 µg/mL (≈ 14.3 µM); MIC ([12]; MG1655, read-out: MIC mutant, mutant CH5058 raised against 8g, ackA Ile92fs): 16 µg/mL (≈ 28.6 µM); MIC ([12]; MG1655, read-out: MIC mutant, mutant CH5059 raised against 8g, ackA Arg91Ser): 16 µg/mL (≈ 28.6 µM); MIC ([12]; MG1655, read-out: MIC mutant, mutant CH5062 raised against 8g, ackA Gly241Asp): 16 µg/mL (≈ 28.6 µM); MIC ([12]; MG1655, read-out: MIC mutant, mutant CH5063 raised against 8g, ackA Arg91Leu): 16 µg/mL (≈ 28.6 µM); fold increase of MIC ([12]; mutant CH5053 vs parent E. coli MG1655 ΔtolC): 4; fold increase of MIC ([12]; mutant CH5054 vs parent E. coli MG1655 ΔtolC): 4; fold increase of MIC ([12]; mutant CH5055 vs parent E. coli MG1655 ΔtolC): 4; fold increase of MIC ([12]; mutant CH5056 vs parent E. coli MG1655 ΔtolC): 4; fold increase of MIC ([12]; mutant CH5057 vs parent E. coli MG1655 ΔtolC): 2; fold increase of MIC ([12]; mutant CH5058 vs parent E. coli MG1655 ΔtolC): 4; fold increase of MIC ([12]; mutant CH5059 vs parent E. coli MG1655 ΔtolC): 4; fold increase of MIC ([12]; mutant CH5062 vs parent E. coli MG1655 ΔtolC): 4; fold increase of MIC ([12]; mutant CH5063 vs parent E. coli MG1655 ΔtolC): 4
Nc1nc(Nc2ccc3nc(-c4ccc(F)cc4)cc(N)c3c2)cc(N2CCC(N)CC2)n1 [Compound 8j, N^6-(2-Amino-6-(4-aminopiperidin-1-yl)pyrimidin-4-yl)-2-(4-fluorophenyl)quinoline-4,6-diamine] | 6.1 µM and 6.07 µM | 21 µM | 21.4 µM | 64 µg/mL (≈ 144 µM) | 16 µg/mL (≈ 36 µM) | 8 µg/mL (≈ 18 µM) | 4 µg/mL (≈ 9 µM) | 8 µg/mL (≈ 18 µM) | 128 µg/mL (≈ 288 µM) | 32 µg/mL (≈ 72 µM) | 44.5 µg/mL | 22 µM | 9.8 µg/mL | >128 µg/mL | MIC ([13]; Pseudomonas aeruginosa, PAO1, read-out: MIC mutant): 32 µg/mL (≈ 72 µM); fold increase of MIC ([13]; mutant CH5071 vs parent P. aeruginosa PAO1): 8; MIC mutant ([13]; mutant CH5072 raised against 8j, phoQ Leu158fs): 32 µg/mL (≈ 72 µM); fold increase of MIC ([13]; mutant CH5072 vs parent P. aeruginosa PAO1): 8; MIC mutant ([13]; mutant CH5073 raised against 8j, basS (pmrB) Ser257Asn): 32 µg/mL (≈ 72 µM); fold increase of MIC ([13]; mutant CH5073 vs parent P. aeruginosa PAO1): 8; MIC mutant ([13]; mutant CH5075 raised against 8j, basS (pmrB) Ala29Glu): 32 µg/mL (≈ 72 µM); fold increase of MIC ([13]; mutant CH5075 vs parent P. aeruginosa PAO1): 8; MIC mutant ([13]; mutant CH5077 raised against 8j, phoQ Ser151 stop codon): 32 µg/mL (≈ 72 µM); fold increase of MIC ([13]; mutant CH5077 vs parent P. aeruginosa PAO1): 8
Nc1nc(Nc2ccc3nc(-c4ccc(F)cc4)cc(N)c3c2)cc(OCCO)n1 [Compound 9b, 2-((2-Amino-6-((4-amino-2-(4-fluorophenyl)quinolin-6-yl)amino)pyrimidin-4-yl)oxy)ethan-1-ol] | 2.5 µM and 2.46 µM | 13 µM | 12.8 µM | 32 µg/mL (≈ 78.7 µM) | 8 µg/mL (≈ 19.7 µM) | 16 µg/mL (≈ 39.4 µM) | ≥ 64 µg/mL | 32 µg/mL (≈ 78.7 µM) | 32 µg/mL (≈ 78.7 µM) | 16 µg/mL (≈ 39.4 µM) | 9.8 µg/mL | 8 µM | 3.3 µg/mL | 32 µg/mL (≈ 78.7 µM) | –
